For one compound, IC50 results are on record in publication PMC11465873, “Functional Properties and Components of Koenigia alpina Extract” (Skin Research and Technology, 2024).

The target in one assay is T1, elastase.
T1 construct: gene CELA1
Description: absorbance at […] nm, nitroanilide release. It counts as biochemical. As to conditions: N-(methoxysuccinyl)-Ala-Ala-Pro-Val-4-nitroanilide substrate; 0.2 M Tris-HCl; 30 min; positive control.

The target of a further assay is T2, collagenase.
T2 construct: gene colG
Description: modified ninhydrin assay, absorbance at […] nm. Particulars: collagen substrate; 5 h at 37°C; calcium chloride; positive control. It counts as biochemical.

SMILES strings stand for the structures. Converted amounts (≈) assume the structure as drawn.

In general, IC50 refers to the concentration at which inhibition is half-maximal. `O=C(O[C@@H]1Cc2c(O)cc(O)cc2O[C@@H]1c1cc(O)c(O)c(O)c1)c1cc(O)c(O)c(O)c1` [Epigallocatechin gallate]: the figures for the half-inhibitory concentration (IC50) against elastase and on collagenase were 2620 µg/mL (≈ 5720 µM) and 40 µg/mL (≈ 87.3 µM), respectively.
